Experimental findings from ChEMBL document CHEMBL1201862, “PubChem BioAssay data set” (2004) are described below.

Structures are written as SMILES.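 These data come from cells grown in 96-well plates and exposed to compound for 48 hours at five concentrations. The concentration for 50% growth inhibition is given as GI50.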 Calls of active or inactive are those of the source. No stated cut-off is given here; in the data, active = GI50 up to about 1.1 µM and inactive = higher. Bounds are passed on as bounds.

Some test systems named below: OVCAR-3; IGROV-1; MDA-MB-435; A549; PC-3; SF-295; OVCAR-5; NCI-H226; MDA-N; DU-145; UACC-62; A498; SK-MEL-28; TK-10; SNB-19; NCI-H23; U-251; HCT-116; SW-620; HCT-15.
Holding throughout (assay): NCI tumour cell line growth inhibition, 48 h

As to `CN(C)Cc1c[nH]c2ncnc(O)c12`, the GI50 in the assay with OVCAR-3 is > 100 µM (inactive); in the assay on IGROV-1, 35 µM (inactive); in the assay with MDA-MB-435, 31.8 µM (inactive); in the assay with A549, 86.5 µM (inactive); with PC-3 it was 56.2 µM (inactive); in the assay with SF-295 it was > 100 µM (inactive). Moreover, the GI50 was > 100 µM (inactive) in the assay on OVCAR-5; > 100 µM (inactive) in the assay on NCI-H226; 23.1 µM (inactive) with MDA-N; 26.4 µM (inactive) in the assay on DU-145; 20.9 µM (inactive) with UACC-62; > 100 µM (inactive) in the assay on A498. The GI50 in the assay with SK-MEL-28 was 46.1 µM (inactive); in the assay with TK-10, 37.7 µM (inactive); with SNB-19 it was 70.1 µM (inactive); with NCI-H23 it was 32.2 µM (inactive); in the assay with U-251, 51.6 µM (inactive); with HCT-116 it was 22.4 µM (inactive). Also, the GI50 in the assay with SW-620 was 27.2 µM (inactive); in the assay on HCT-15 it was 35.5 µM.

Regarding `COc1ccc(C2=NOC(N)(c3ccc(OC)cc3)C2)cc1` (centres undefined), the GI50 in the assay on OVCAR-3, in the assay with IGROV-1, in the assay on MDA-MB-435, in the assay with A549, in the assay with PC-3 and in the assay with SF-295 was > 100 µM (inactive) throughout. For the same molecule, the GI50 with OVCAR-5 was > 100 µM (inactive); with NCI-H226, > 100 µM (inactive); in the assay on MDA-N, > 100 µM (inactive); in the assay on DU-145 it was > 100 µM (inactive); in the assay on UACC-62, > 100 µM (inactive); with A498, 29 µM (inactive). Further, the GI50 in the assay with SK-MEL-28, with TK-10, in the assay on SNB-19, with NCI-H23, in the assay with U-251 and in the assay with HCT-116 was > 100 µM (inactive) in each case. In addition, the GI50 is > 100 µM (inactive) in the assay on SW-620 and above 100 µM with HCT-15.

Turning to `COc1cc(C)cc2c1c(=O)c1ccccc1n2C`, the GI50 in the assay on OVCAR-3 is 37.6 µM (inactive); in the assay on IGROV-1, 42.1 µM (inactive); with MDA-MB-435, 35.4 µM (inactive); with A549, 40.4 µM (inactive); with PC-3 it was 29.2 µM (inactive); in the assay on SF-295 it was 20.8 µM (inactive). Besides, the GI50 in the assay with OVCAR-5 was 34.8 µM (inactive); in the assay with NCI-H226 it was 33.5 µM (inactive); in the assay with MDA-N it was 19 µM (inactive); with DU-145 it was 49.3 µM (inactive); with UACC-62, 33.7 µM (inactive); in the assay on A498 it was 43.3 µM (inactive). The GI50 in the assay with SK-MEL-28 was 42.6 µM (inactive); with TK-10 it was 56.4 µM (inactive); in the assay on SNB-19, 54.8 µM (inactive); in the assay on NCI-H23, 40.8 µM (inactive); in the assay with U-251, 33.9 µM (inactive); in the assay on HCT-116, 30 µM (inactive). In addition, the GI50 in the assay with SW-620 was 46.2 µM (inactive); in the assay on HCT-15, 36.4 µM.

Regarding `Cc1c(/C=N/NC(=S)Nc2ccc(Cl)cc2)c(=O)n(-c2ccccc2)n1C`, the GI50 with OVCAR-3 is > 42 µM (inactive); in the assay with IGROV-1 it was 16 µM (inactive); in the assay with MDA-MB-435, > 100 µM (inactive); with A549, 33.7 µM (inactive); in the assay with PC-3 it was > 52.1 µM (inactive); in the assay on SF-295, 18.4 µM (inactive). Moreover, the GI50 in the assay on OVCAR-5 is > 56.5 µM (inactive); in the assay with NCI-H226, 18.7 µM (inactive); with MDA-N it was > 100 µM (inactive); in the assay with DU-145, 42.7 µM (inactive); in the assay on UACC-62 it was > 48.5 µM (inactive); with A498, 22.5 µM (inactive). In addition, the GI50 in the assay on SK-MEL-28 is > 100 µM (inactive); with TK-10, 23.6 µM (inactive); in the assay on SNB-19 it was 27.9 µM (inactive); in the assay on NCI-H23, 24.8 µM (inactive); with U-251, 15.5 µM (inactive); in the assay with HCT-116, 24.9 µM (inactive). Also, the GI50 was > 78.5 µM (inactive) with SW-620 and 17.9 µM with HCT-15.

`O=C1CC2C=CC(O)C(C1)C2` (centres undefined): the GI50 in the assay with OVCAR-3, with IGROV-1, in the assay with MDA-MB-435, in the assay with PC-3, in the assay on SF-295 and in the assay with OVCAR-5 was > 100 µM (inactive) each time. Moreover, the GI50 in the assay on NCI-H226 was 37.4 µM (inactive); with MDA-N, > 100 µM (inactive); in the assay on DU-145, > 100 µM (inactive); in the assay with UACC-62, > 100 µM (inactive); in the assay with A498 it was > 100 µM (inactive); in the assay on SK-MEL-28, > 100 µM (inactive). Also, the GI50 with TK-10, in the assay on SNB-19, in the assay with NCI-H23, in the assay on U-251, in the assay with HCT-116 and with SW-620 was > 100 µM (inactive) throughout. Also, in the assay on HCT-15, the GI50 is above 100 µM.

On to `O=C1C(/N=N/c2ccc(-c3nc4ccccc4[nH]3)cc2)NC(=S)N1c1ccccc1` (centres undefined), for which the GI50 in the assay with OVCAR-3 was > 100 µM (inactive); in the assay on IGROV-1, 40.2 µM (inactive); with MDA-MB-435 it was 67.3 µM (inactive); in the assay on A549, 53.7 µM (inactive); in the assay on PC-3, 98.2 µM (inactive); in the assay on SF-295, 91.6 µM (inactive). For the same molecule, the GI50 with OVCAR-5 was > 100 µM (inactive); with NCI-H226, > 100 µM (inactive); in the assay on MDA-N, 39.5 µM (inactive); in the assay with DU-145, 28.6 µM (inactive); in the assay on UACC-62, > 100 µM (inactive); in the assay on A498, > 100 µM (inactive). Moreover, the GI50 was > 100 µM (inactive) with SK-MEL-28; > 100 µM (inactive) with TK-10; > 100 µM (inactive) with SNB-19; 57.4 µM (inactive) in the assay with NCI-H23; 33 µM (inactive) in the assay on U-251; 36.8 µM (inactive) in the assay on HCT-116. Moreover, the figures for the GI50 in the assay on SW-620 and in the assay with HCT-15 were 28.1 µM (inactive) and 18.2 µM, respectively.

As to `CCOC(=O)C(Cc1cccn1C(=O)OC(C)(C)C)[N+](=O)[O-]` (centres undefined), the GI50 in the assay with OVCAR-3 was 32.1 µM (inactive); with IGROV-1, 21.5 µM (inactive); in the assay with MDA-MB-435, 26.6 µM (inactive); in the assay on A549 it was 32 µM (inactive); with PC-3, 20.7 µM (inactive); in the assay on SF-295, 30.6 µM (inactive). Moreover, the GI50 in the assay on OVCAR-5 was 23.8 µM (inactive); in the assay with NCI-H226, 26.1 µM (inactive); with MDA-N, 26.7 µM (inactive); in the assay with DU-145, 26.9 µM (inactive); with UACC-62, 21.5 µM (inactive); with A498 it was 23.5 µM (inactive). In addition, the GI50 is 27.4 µM (inactive) with SK-MEL-28; 22.3 µM (inactive) in the assay with TK-10; 25.2 µM (inactive) with SNB-19; 34.8 µM (inactive) in the assay on NCI-H23; 20.8 µM (inactive) in the assay with U-251; 20.9 µM (inactive) in the assay on HCT-116. In addition, the GI50 in the assay with SW-620 is 23.8 µM (inactive); in the assay with HCT-15, 24.3 µM.

With `CC(C)C(/C=C/c1ccccc1)=N\NC(=S)NN`, the GI50 in the assay with OVCAR-3 is 21.3 µM (inactive); with IGROV-1 it was 67.8 µM (inactive); in the assay on MDA-MB-435, 49.5 µM (inactive); in the assay with A549, 51.1 µM (inactive); with PC-3, 53.3 µM (inactive); in the assay with SF-295 it was 67.6 µM (inactive). The GI50 in the assay on OVCAR-5 was > 100 µM (inactive); with NCI-H226 it was > 70.3 µM (inactive); in the assay with MDA-N, 26.6 µM (inactive); in the assay on DU-145 it was > 100 µM (inactive); with UACC-62 it was 35.3 µM (inactive); in the assay with A498 it was > 100 µM (inactive). Further, the GI50 is > 100 µM (inactive) in the assay with SK-MEL-28; > 100 µM (inactive) in the assay with TK-10; > 100 µM (inactive) in the assay with SNB-19; > 77.3 µM (inactive) in the assay with NCI-H23; > 67.9 µM (inactive) in the assay on U-251; 31.5 µM (inactive) in the assay with HCT-116. Also, the GI50 in the assay on SW-620 was 66.5 µM (inactive); in the assay with HCT-15, 31.6 µM.

With `O=C1c2c(O)cccc2Cc2cc(CO)cc(O)c21`, the GI50 is 1.66 µM (inactive) with OVCAR-3; 4.03 µM (inactive) in the assay with IGROV-1; 2.67 µM (inactive) in the assay with MDA-MB-435; 2.92 µM (inactive) in the assay with A549; 1.08 µM (active) with PC-3; 1.52 µM (inactive) with SF-295. In addition, the GI50 with OVCAR-5 is 4.02 µM (inactive); in the assay with NCI-H226, 5.36 µM (inactive); in the assay with MDA-N, 2.74 µM (inactive); in the assay on DU-145, 3.86 µM (inactive); with UACC-62, 2.09 µM (inactive); in the assay on A498, 4.22 µM (inactive). The GI50 in the assay on SK-MEL-28 is 3.96 µM (inactive); in the assay with TK-10, 4.08 µM (inactive); in the assay with SNB-19 it was 2.49 µM (inactive); in the assay with NCI-H23, 1.85 µM (inactive); in the assay on U-251 it was 1.34 µM (inactive); in the assay with HCT-116, 2.31 µM (inactive). For the same molecule, the values for the GI50 with SW-620 and with HCT-15 were 4.06 µM (inactive) and 3.22 µM, respectively.

Regarding `COc1cc(-c2oc3c(OC)c(O)c(OC)c(O)c3c(=O)c2OC)ccc1O`, the GI50 with OVCAR-3 is 24.3 µM (inactive); in the assay on IGROV-1, 25.4 µM (inactive); in the assay with MDA-MB-435, 17.8 µM (inactive); in the assay on A549, 65.3 µM (inactive); in the assay with PC-3 it was 48.9 µM (inactive); with SF-295, 44.9 µM (inactive). For the same molecule, the GI50 in the assay with OVCAR-5 was > 100 µM (inactive); in the assay on NCI-H226, 34.9 µM (inactive); with MDA-N it was 48.1 µM (inactive); in the assay with DU-145 it was 32 µM (inactive); with UACC-62, 20.7 µM (inactive); with A498 it was 37.3 µM (inactive). Moreover, the GI50 is 56.8 µM (inactive) in the assay with SK-MEL-28; 31.3 µM (inactive) in the assay on TK-10; > 100 µM (inactive) in the assay on SNB-19; 52.4 µM (inactive) with NCI-H23; 26.4 µM (inactive) in the assay on U-251; 50.6 µM (inactive) in the assay on HCT-116. The GI50 was 94.4 µM (inactive) in the assay with SW-620 and 28.8 µM in the assay with HCT-15.
